We go through three molecules from ChEMBL document CHEMBL1121591, “Synthesis and antitumor activity of 2,4-diamino-6-(2,5-dimethoxybenzyl)-5-methylpyrido[2,3-d]pyrimidine” (1980).

Common to all, as to type: functional
One assay relates to CCRF S-180. The experiment in a line: Cytotoxic activity against the S180 cell cultures. Particulars: Mus musculus, read-out: ED50 (the source's name).
Another assay has as its system L1210. The experiment in a line: Cytotoxic activity against the L1210 cell cultures. As to conditions: Mus musculus, read-out: ED50 (the source's name).
A further assay deals with W256. In words: Cytotoxic activity against the Walker 256 carcinosarcoma in rats. As to conditions: Rattus norvegicus, read-out: ED50 (the source's name).

For the molecule `COc1ccc(OC)c(Cc2cnc3nc(N)nc(N)c3c2C)c1` [PIRITREXIM], the values for the EC50 in the assay with CCRF S-180, in the assay on L1210 and in the assay with W256 were 0.012 µM, 0.002 µM and 0.008 µM, respectively.
For the molecule `Cc1nc(N)nc(N)c1-c1ccc(Cl)c(Cl)c1` [METOPRINE], the EC50 in the assay with CCRF S-180 amounted to 0.05 µM; with L1210, 0.22 µM; in the assay on W256 it was 0.05 µM.
Regarding `CN(Cc1cnc2nc(N)nc(N)c2n1)c1ccc(C(=O)N[C@@H](CCC(=O)O)C(=O)O)cc1` [METHOTREXATE], the EC50 in the assay on CCRF S-180 amounted to 0.016 µM; with L1210 it was 0.016 µM; in the assay with W256 it was 0.02 µM.
